Test system: MRSA clinical isolates
Assay: Antibiotic susceptibility profile of MRSA clinical isolates (EUCAST breakpoints)
Type: cell-based, Staphylococcus aureus
From the text: Clinical MRSA isolates with multidrug resistance were obtained from the collection of the Research Institute of Antimicrobial Chemotherapy, Smolensk State Medical Academy.

CCC[C@@H]1C[C@@H](C(=O)N[C@@H]([C@H]2O[C@H](SC)[C@H](O)[C@@H](O)[C@H]2O)[C@H](C)Cl)N(C)C1 [CLIND, clindamycin]
Drug sensibility profile (MRSA strain 1): S | Drug sensibility profile (MRSA strain 2): R | Drug sensibility profile (MRSA strain 3): S | Drug sensibility profile (MRSA strain 4): S | Drug sensibility profile (MRSA strain 5): R | Drug sensibility profile (MRSA strain 6): R | Drug sensibility profile (MRSA strain 7): R | Drug sensibility profile (MRSA strain 8): S | Drug sensibility profile (MRSA strain 9): S | Drug sensibility profile (MRSA strain 10): S | Drug sensibility profile (MRSA strain 12): R | Drug sensibility profile (MRSA strain 13): S | Drug sensibility profile (MRSA strain 14): R | Drug sensibility profile (MRSA strain 15): S | Drug sensibility profile (MRSA strain 16): R | Drug sensibility profile (MRSA strain 17): S | Drug sensibility profile (MRSA strain 18): S | Drug sensibility profile (MRSA strain 21): R | Drug sensibility profile (MRSA strain 23): R | Drug sensibility profile (MRSA strain 24): S | Drug sensibility profile (MRSA strain 25): S | Drug sensibility profile (MRSA strain 26): S S S S S S S | Drug sensibility profile (MRSA strain 27): S | Drug sensibility profile (MRSA strain 28): S | Drug sensibility profile (MRSA strain 29): S | Drug sensibility profile (MRSA strain 30): S | Drug sensibility profile (MRSA strain 31): R | Drug sensibility profile (MRSA strain 34): S | Drug sensibility profile (MRSA strain 35): S | Drug sensibility profile (MRSA strain 36): S S S S S S S | Drug sensibility profile (MRSA strain 40): R | Drug sensibility profile (MRSA strain 41): S | Drug sensibility profile (MRSA strain 42): S | Drug sensibility profile (MRSA strain 43): S | Drug sensibility profile (MRSA strain 44): S | Drug sensibility profile (MRSA strain 45): R | Drug sensibility profile (MRSA strain 46): S | Drug sensibility profile (MRSA strain 48): R | Drug sensibility profile (MRSA strain 49): S | Drug sensibility profile (MRSA strain 50): R | Drug sensibility profile (MRSA strain 51): S

CC[C@H]1OC(=O)[C@H](C)[C@@H](O[C@H]2C[C@@](C)(OC)[C@@H](O)[C@H](C)O2)[C@H](C)[C@@H](O[C@@H]2O[C@H](C)C[C@H](N(C)C)[C@H]2O)[C@](C)(O)C[C@@H](C)C(=O)[C@H](C)[C@@H](O)[C@]1(C)O [ERI, erythromycin]
Drug sensibility profile (MRSA strain 1): S | Drug sensibility profile (MRSA strain 2): R | Drug sensibility profile (MRSA strain 3): S | Drug sensibility profile (MRSA strain 4): S | Drug sensibility profile (MRSA strain 5): R | Drug sensibility profile (MRSA strain 6): R | Drug sensibility profile (MRSA strain 7): R | Drug sensibility profile (MRSA strain 8): R | Drug sensibility profile (MRSA strain 9): R | Drug sensibility profile (MRSA strain 10): S | Drug sensibility profile (MRSA strain 12): R | Drug sensibility profile (MRSA strain 13): S | Drug sensibility profile (MRSA strain 14): R | Drug sensibility profile (MRSA strain 15): S | Drug sensibility profile (MRSA strain 16): R | Drug sensibility profile (MRSA strain 17): S | Drug sensibility profile (MRSA strain 18): S | Drug sensibility profile (MRSA strain 21): R | Drug sensibility profile (MRSA strain 23): R | Drug sensibility profile (MRSA strain 24): S | Drug sensibility profile (MRSA strain 25): S | Drug sensibility profile (MRSA strain 26): S S S S S S S | Drug sensibility profile (MRSA strain 27): S | Drug sensibility profile (MRSA strain 28): R | Drug sensibility profile (MRSA strain 29): S | Drug sensibility profile (MRSA strain 30): I | Drug sensibility profile (MRSA strain 31): R | Drug sensibility profile (MRSA strain 34): I | Drug sensibility profile (MRSA strain 35): I | Drug sensibility profile (MRSA strain 36): S S S S S S S | Drug sensibility profile (MRSA strain 40): R | Drug sensibility profile (MRSA strain 41): S | Drug sensibility profile (MRSA strain 42): S | Drug sensibility profile (MRSA strain 43): I | Drug sensibility profile (MRSA strain 44): I | Drug sensibility profile (MRSA strain 45): R | Drug sensibility profile (MRSA strain 46): S | Drug sensibility profile (MRSA strain 48): R | Drug sensibility profile (MRSA strain 49): I | Drug sensibility profile (MRSA strain 50): R | Drug sensibility profile (MRSA strain 51): S

CC(=O)O[C@H]1C[C@@]2(C)[C@@H](C[C@@H](O)[C@H]3[C@@]4(C)CC[C@@H](O)[C@@H](C)[C@@H]4CC[C@@]32C)/C1=C(\CCC=C(C)C)C(=O)O [Fusidic acid]
Drug sensibility profile (MRSA strain 1): S | Drug sensibility profile (MRSA strain 2): S | Drug sensibility profile (MRSA strain 3): S | Drug sensibility profile (MRSA strain 4): S | Drug sensibility profile (MRSA strain 5): S | Drug sensibility profile (MRSA strain 6): S | Drug sensibility profile (MRSA strain 7): S | Drug sensibility profile (MRSA strain 8): S | Drug sensibility profile (MRSA strain 9): S | Drug sensibility profile (MRSA strain 10): S | Drug sensibility profile (MRSA strain 12): S | Drug sensibility profile (MRSA strain 13): S | Drug sensibility profile (MRSA strain 14): S | Drug sensibility profile (MRSA strain 15): S | Drug sensibility profile (MRSA strain 16): S | Drug sensibility profile (MRSA strain 17): R | Drug sensibility profile (MRSA strain 18): S | Drug sensibility profile (MRSA strain 21): S | Drug sensibility profile (MRSA strain 23): S | Drug sensibility profile (MRSA strain 24): S | Drug sensibility profile (MRSA strain 25): S | Drug sensibility profile (MRSA strain 26): S | Drug sensibility profile (MRSA strain 27): S | Drug sensibility profile (MRSA strain 28): S | Drug sensibility profile (MRSA strain 29): S | Drug sensibility profile (MRSA strain 30): S | Drug sensibility profile (MRSA strain 31): S | Drug sensibility profile (MRSA strain 34): S | Drug sensibility profile (MRSA strain 35): S | Drug sensibility profile (MRSA strain 36): S | Drug sensibility profile (MRSA strain 40): S | Drug sensibility profile (MRSA strain 41): S | Drug sensibility profile (MRSA strain 42): S | Drug sensibility profile (MRSA strain 43): S | Drug sensibility profile (MRSA strain 44): S | Drug sensibility profile (MRSA strain 45): S | Drug sensibility profile (MRSA strain 46): S | Drug sensibility profile (MRSA strain 48): S | Drug sensibility profile (MRSA strain 49): S | Drug sensibility profile (MRSA strain 50): S | Drug sensibility profile (MRSA strain 51): S

CCCCCCCCCC(=O)N[C@@H](Cc1c[nH]c2ccccc12)C(=O)N[C@H](CC(N)=O)C(=O)N[C@@H](CC(=O)O)C(=O)N[C@@H]1C(=O)NCC(=O)N[C@@H](CCCN)C(=O)N[C@@H](CC(=O)O)C(=O)N[C@H](C)C(=O)N[C@@H](CC(=O)O)C(=O)NCC(=O)N[C@H](CO)C(=O)N[C@@H]([C@H](C)CC(=O)O)C(=O)N[C@@H](CC(=O)c2ccccc2N)C(=O)O[C@@H]1C [Daptomycine]
Drug sensibility profile (MRSA strain 1): S | Drug sensibility profile (MRSA strain 2): S | Drug sensibility profile (MRSA strain 3): S | Drug sensibility profile (MRSA strain 4): S | Drug sensibility profile (MRSA strain 5): S | Drug sensibility profile (MRSA strain 6): S | Drug sensibility profile (MRSA strain 7): S | Drug sensibility profile (MRSA strain 8): S | Drug sensibility profile (MRSA strain 9): S | Drug sensibility profile (MRSA strain 10): S | Drug sensibility profile (MRSA strain 12): S | Drug sensibility profile (MRSA strain 13): S | Drug sensibility profile (MRSA strain 14): S | Drug sensibility profile (MRSA strain 15): S | Drug sensibility profile (MRSA strain 16): S | Drug sensibility profile (MRSA strain 17): S | Drug sensibility profile (MRSA strain 18): S | Drug sensibility profile (MRSA strain 21): S | Drug sensibility profile (MRSA strain 23): S | Drug sensibility profile (MRSA strain 24): S | Drug sensibility profile (MRSA strain 30): S | Drug sensibility profile (MRSA strain 31): S | Drug sensibility profile (MRSA strain 34): S | Drug sensibility profile (MRSA strain 35): S | Drug sensibility profile (MRSA strain 40): S | Drug sensibility profile (MRSA strain 43): S | Drug sensibility profile (MRSA strain 46): S | Drug sensibility profile (MRSA strain 48): S | Drug sensibility profile (MRSA strain 49): S | Drug sensibility profile (MRSA strain 50): S

CN(C)[C@@H]1C(O)=C(C(N)=O)C(=O)[C@@]2(O)C(O)=C3C(=O)c4c(O)cccc4[C@@](C)(O)[C@H]3C[C@@H]12 [TET, tetracycline]
Drug sensibility profile (MRSA strain 1): R | Drug sensibility profile (MRSA strain 2): R | Drug sensibility profile (MRSA strain 3): S | Drug sensibility profile (MRSA strain 4): S | Drug sensibility profile (MRSA strain 5): S | Drug sensibility profile (MRSA strain 6): S | Drug sensibility profile (MRSA strain 7): R | Drug sensibility profile (MRSA strain 8): R | Drug sensibility profile (MRSA strain 9): R | Drug sensibility profile (MRSA strain 10): S | Drug sensibility profile (MRSA strain 12): R | Drug sensibility profile (MRSA strain 13): R | Drug sensibility profile (MRSA strain 14): S | Drug sensibility profile (MRSA strain 15): R | Drug sensibility profile (MRSA strain 16): S | Drug sensibility profile (MRSA strain 17): S | Drug sensibility profile (MRSA strain 18): S | Drug sensibility profile (MRSA strain 21): R | Drug sensibility profile (MRSA strain 23): S | Drug sensibility profile (MRSA strain 24): S | Drug sensibility profile (MRSA strain 25): S | Drug sensibility profile (MRSA strain 26): S S S S S S S | Drug sensibility profile (MRSA strain 27): R | Drug sensibility profile (MRSA strain 28): R | Drug sensibility profile (MRSA strain 29): S | Drug sensibility profile (MRSA strain 30): S | Drug sensibility profile (MRSA strain 31): S | Drug sensibility profile (MRSA strain 34): S | Drug sensibility profile (MRSA strain 35): S | Drug sensibility profile (MRSA strain 36): S S S S S S S | Drug sensibility profile (MRSA strain 40): R | Drug sensibility profile (MRSA strain 41): R | Drug sensibility profile (MRSA strain 42): S | Drug sensibility profile (MRSA strain 43): S | Drug sensibility profile (MRSA strain 44): S | Drug sensibility profile (MRSA strain 45): I | Drug sensibility profile (MRSA strain 46): S | Drug sensibility profile (MRSA strain 48): R | Drug sensibility profile (MRSA strain 49): R | Drug sensibility profile (MRSA strain 50): R | Drug sensibility profile (MRSA strain 51): S

C/C(=C\C(=O)OCCCCCCCCC(=O)O)C[C@@H]1OC[C@H](C[C@@H]2O[C@H]2[C@@H](C)[C@H](C)O)[C@@H](O)[C@H]1O [Mupirocin]
Drug sensibility profile (MRSA strain 1): S | Drug sensibility profile (MRSA strain 2): S | Drug sensibility profile (MRSA strain 3): S | Drug sensibility profile (MRSA strain 4): S | Drug sensibility profile (MRSA strain 5): S | Drug sensibility profile (MRSA strain 6): S | Drug sensibility profile (MRSA strain 7): S | Drug sensibility profile (MRSA strain 8): S | Drug sensibility profile (MRSA strain 9): S | Drug sensibility profile (MRSA strain 10): S | Drug sensibility profile (MRSA strain 12): S | Drug sensibility profile (MRSA strain 13): S | Drug sensibility profile (MRSA strain 14): S | Drug sensibility profile (MRSA strain 15): S | Drug sensibility profile (MRSA strain 16): S | Drug sensibility profile (MRSA strain 17): S | Drug sensibility profile (MRSA strain 18): S | Drug sensibility profile (MRSA strain 21): S | Drug sensibility profile (MRSA strain 23): S | Drug sensibility profile (MRSA strain 24): S | Drug sensibility profile (MRSA strain 25): S | Drug sensibility profile (MRSA strain 26): S | Drug sensibility profile (MRSA strain 27): S | Drug sensibility profile (MRSA strain 28): S | Drug sensibility profile (MRSA strain 29): S | Drug sensibility profile (MRSA strain 30): S | Drug sensibility profile (MRSA strain 31): S | Drug sensibility profile (MRSA strain 34): S | Drug sensibility profile (MRSA strain 35): S | Drug sensibility profile (MRSA strain 36): S | Drug sensibility profile (MRSA strain 40): S | Drug sensibility profile (MRSA strain 41): S | Drug sensibility profile (MRSA strain 42): S | Drug sensibility profile (MRSA strain 43): S | Drug sensibility profile (MRSA strain 44): S | Drug sensibility profile (MRSA strain 45): S | Drug sensibility profile (MRSA strain 46): S | Drug sensibility profile (MRSA strain 48): S | Drug sensibility profile (MRSA strain 49): S | Drug sensibility profile (MRSA strain 50): I | Drug sensibility profile (MRSA strain 51): S
